Like-named read-outs stand apart in the source and are kept apart here.
Tests used:
[1] = system: platelet rich rabbit plasma; experiment: In vitro platelet antiaggregation activity, arachidonic acid induced, platelet rich plasma; assay type: cell-based; conditions: Oryctolagus cuniculus; for activity at 10 µg/mL: 10 mcg/ml, arachidonic acid 50 mcg/ml
Procedure: (§1) The platelet antiaggregation activity was determined in vitro using platelet rich rabbit plasma and arachidonic acid (50 mcg/ml) as aggregation inducing agent. The results are given for tracheal relaxation as percentage inhibition of the tracheal tone relative to the maximum relaxation induced by noradrenaline (0.3 mcg/ml) and for the platelet aggregation as a percentage of the maximum effect observed with the proaggregation agent.

human platelets = experiment: In vitro inhibition of human platelet aggregation, Born's method; assay type: cell-based
Procedure: The platelet antiaggregation activity of the active products in the initial screening (Table 4) has been confirmed and extended by evaluating the capacity thereof to inhibit in vitro the aggregation of human platelets using Born's method. ADP (1 mcM), collagen (2 mcg/ml), arachidonic acid (1 mM), U-46619 (1,4 mcM) and IBOP (225 nM) were used as aggregation inducing agents. The results obtained (Table 5) show the capacity of the products tested to inhibit dose dependently the platelet aggregation induced by collagen, arachidonic acid, U-46619 and IBOP, probably through interaction with the platelet endoperoxide/thromboxane receptor. Therefore, said compounds might be potentially useful in the treatment of disorders in which the thromboxanes play a part, such as myocardial infarct, cerebrovascular diseases and asthmatic and/or inflammatory states.

[2] = system: isolated guinea pig trachea; experiment: In vitro trachea relaxing activity (spontaneous tone in isolated trachea, method of Luduena); assay type: cell-based; conditions: Cavia porcellus, 30 mcg/ml, relative to maximum relaxation by noradrenaline 0.3 mcg/ml
Procedure: as §1

[3] = system: histamine induced bronchospasm in anaesthetized guinea pig; experiment: In vivo bronchodilatory effect, histamine induced bronchospasm (Konzett and Rossler); conditions: area under the curve relative to theophylline
Procedure: Konzett and Rosslet's technique was used for evaluation, with the capacity of the tested products, when administered intraduodenally at dose levels of 25 and 100 mg/kg, to antagonize a histamine induced bronchospasm (7.5 mcg/ml) in anaesthetized guinea pig being determined. Theophylline (25 mg/kg, i.d.) was used as reference drug, with the areas under the curve defined by the bronchospasm inhibition percentages and the post-administration time being compared.

rats = experiment: Diuretic and saluretic activity (urine volume and electrolyte excretion over 6 h), technique of Lipschits et al.; assay type: in vivo; conditions: rat, 20 mg/kg po, (N) = not statistically significant vs control
Procedure: The synthesized compounds were, therefore, subjected a pharmacological screening to evaluate a possible diuretic and salt excreting activity. Thus, an acute dose of each of the products of synthesis (20 or 25 mg/kg) was administered to rats and the amount of urine and the excretion of electrolytes was measured, following the technique described by Lipschits et al., with certain modifications (J. Pharmacol. Exp.Ther. 1943-79; 97-110).
The volume (ml/kg/6 h), the pH and the excretion of sodium, potassium and chloride ions (mEq/kg/6 h) were determined on the urine quantitatively collected over 6 hours, using triamterene and hydrochlorothiazide as reference diuretics.

[4] = IBOP 225 nM, read-out: Concentration inhibiting > 60% platelet aggregation, IBOP
[5] = U-46619 1,4 mcM, read-out: Concentration inhibiting > 60% platelet aggregation, U-46619
[6] = arachidonic acid 1 mM, read-out: Concentration inhibiting > 60% platelet aggregation, arachidonic acid
[7] = collagen 2 mcg/ml, read-out: Concentration inhibiting > 60% platelet aggregation, collagen

Row | Compound | activity at 10 µg/mL [1] | IC60 (human platelets; [4]) | IC60 (human platelets; [5]) | IC60 (human platelets; [6]) | IC60 (human platelets; [7]) | activity at 30 µg/mL [2] | Bronchodilatory activity (area ratio) ([3]; 25 mg/kg i.d.) | Bronchodilatory activity (area ratio) ([3]; 100 mg/kg i.d.) | further results
1 | CCN1c2nc(-c3ccccc3)c(-c3ccccc3)nc2C(N)=NS1(=O)=O [1-ethyl-6,7-diphenyl, 4-amino-1-ethyl-6,7-diphenylpyrazino[2,3-c]-1,2,6-thiadiazine 2,2-dioxide] | 100% | 3000 nM | 1000 nM | 30000 nM | 1000 nM |  |  |  | 
2 | Cn1c(=O)c2[nH]cnc2n(C)c1=O [Theophylline, reference compound] |  |  |  |  |  | 60% | 1 | 1 | 
3 | CCN1c2ncc(C)nc2C(N)=NS1(=O)=O [1-ethyl-6-methyl, 4-amino-1-ethyl-6-methylpyrazino[2,3-c]-1,2,6-thiadiazine 2,2-dioxide] |  |  |  |  |  | 67% | 0.8 | 1.3 | 
4 | CCN1c2ncc(-c3ccccc3)nc2C(N)=NS1(=O)=O [1-ethyl-6-phenyl, 4-amino-1-ethyl-6-phenyl-pyrazino[2,3-c]-1,2,6-thiadiazine 2,2-dioxide] | 100% | 1000 nM | 10000 nM | 30000 nM | 1000 nM |  |  |  | 
5 | CCN1c2nc(-c3ccccc3)c(Br)nc2C(N)=NS1(=O)=O [6-bromo-1-ethyl-7-phenyl, 4-amino-6-bromo-1-ethyl-7-phenylpyrazino[2,3-c]-1,2,6-thiadiazine 2,2-dioxide] | 100% |  |  |  |  | 63% |  |  | 
6 | CC(=O)Oc1ccccc1C(=O)O [Aspirin, reference compound] |  |  |  |  |  |  |  |  | activity at 2.5 µg/mL ([1]; read-out: platelet antiaggregation activity (%)): 100%
7 | CCN1c2nc3c(nc2C(N)=NS1(=O)=O)CCCC3 [4-amino-1-ethyl-6,7,8,9-tetrahydro-1,2,6-thiadiazine[3,4-b]quinoxaline 2,2-dioxide] |  |  |  |  |  | 82% | 0.6 | 0.4 | 
8 | CCN1c2nc(C)c(-c3ccccc3)nc2C(N)=NS1(=O)=O [1-ethyl-6-phenyl-7-methyl, 4-amino-1-ethyl-6-phenyl-7-methylpyrazino[2,3-c]-1,2,6-thiadiazine 2,2-dioxide] | 100% | 3000 nM | 3000 nM | 30000 nM | 1000 nM | 93% |  |  | response vs control in vivo at 20 mg/kg (rats; read-out: Cl excretion, treated group/control group ratio): 123%; response vs control in vivo at 20 mg/kg (rats; read-out: K excretion, treated group/control group ratio): 85%; response vs control in vivo at 20 mg/kg (rats; read-out: Na excretion, treated group/control group ratio): 142%; response vs control in vivo at 20 mg/kg (rats; read-out: Na/K): 165%; response vs control in vivo at 20 mg/kg (rats; read-out: Volume urine, treated group/control group ratio): 121%
